Measurements published in PubChem BioAssay (NCI).
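Dose response: 5 concentrations. Exposure: 48 h. Format: 96-well plates. Endpoint: linear interpolation; highest concentration if not reached. GI50 is the concentration that inhibits growth by half. TGI: total growth inhibition.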

Legend:
Assay in all cases: DTP human tumour cell line panel, 48 h
[1] = test system: 786-0 renal
[2] = test system: A498 renal
[3] = test system: A549 NSCLC
[4] = test system: ACHN renal
[5] = test system: BT-549 breast
[6] = test system: CAKI-1 renal
[7] = test system: CCRF-CEM leukemia
[8] = test system: COLO 205 colon
[9] = test system: DU-145 prostate
[10] = test system: EKVX NSCLC
[11] = test system: HCC-2998 colon
[12] = test system: HCT-116 colon
[13] = test system: HCT-15 colon
[14] = test system: HL-60(TB) leukemia
[15] = test system: HOP-62 NSCLC
[16] = test system: HOP-92 NSCLC
[17] = test system: HS 578T breast
[18] = test system: HT29 colon
[19] = test system: IGROV1 ovarian
[20] = test system: K-562 leukemia
[21] = test system: KM12 colon
[22] = test system: LOX IMVI melanoma
[23] = test system: M14 melanoma
[24] = test system: MALME-3M melanoma
[25] = test system: MCF7 breast
[26] = test system: MDA-MB-231 breast
[27] = test system: MDA-MB-435
[28] = test system: MOLT-4 leukemia
[29] = test system: NCI-H226 lung
[30] = test system: NCI-H23 lung
[31] = test system: NCI-H460 lung
[32] = test system: NCI-H522 lung
[33] = test system: NCI/ADR-RES ovarian
[34] = test system: OVCAR-3 ovarian
[35] = test system: OVCAR-4 ovarian
[36] = test system: OVCAR-5 ovarian
[37] = test system: OVCAR-8 ovarian
[38] = test system: PC-3 prostate
[39] = test system: RPMI-8226 leukemia
[40] = test system: RXF 393 renal
[41] = test system: SF-268 CNS
[42] = test system: SF-295 CNS
[43] = test system: SF-539 CNS
[44] = test system: SK-MEL-2 melanoma
[45] = test system: SK-MEL-5 melanoma
[46] = test system: SK-OV-3 ovarian
[47] = test system: SN12C renal
[48] = test system: SNB-19 CNS
[49] = test system: SNB-75 CNS
[50] = test system: SR leukemia
[51] = test system: SW-620 colon
[52] = test system: T-47D breast
[53] = test system: TK-10 renal
[54] = test system: U251 CNS
[55] = test system: UACC-257 melanoma
[56] = test system: UACC-62 melanoma
[57] = test system: UO-31 renal

How did the GI50 [1] turn out when `COc1ccc(C(O)c2cc3c(N)c(C(=O)Nc4cccc5ccccc45)sc3nc2C)cc1` (stereo not given) was run?
Its GI50 is 499 nM.

What about the GI50 [2] of the same compound?
The GI50 was 200 nM.

What about the TGI [2] of the same compound?
Its TGI is 676 nM.

What about the GI50 [3] of the same compound?
Its GI50 is 381 nM.

What about the TGI [3] of the same compound?
The TGI was > 100000 nM.

What about the GI50 [4] of the same compound?
Its GI50 is 550 nM.

And the TGI [4]?
Its TGI is > 55600 nM.

What about the GI50 [5] of the same compound?
Its GI50 is 385 nM.

And the GI50 [6]?
The GI50 was 352 nM.

And the TGI [6]?
Its TGI is > 100000 nM.

And the GI50 [7]?
Its GI50 is 378 nM.

And the TGI [7]?
The TGI was > 100000 nM.

What about the GI50 [8] of the same compound?
Its GI50 is 457 nM.

And the TGI [8]?
Its TGI is > 33100 nM.

What about the GI50 [9] of the same compound?
The GI50 was 348 nM.

And the TGI [9]?
The TGI was 3120 nM.

What about the GI50 [10] of the same compound?
Its GI50 is 486 nM.

What about the TGI [10] of the same compound?
Its TGI is > 100000 nM.

And the GI50 [11]?
The GI50 was 475 nM.

What about the TGI [11] of the same compound?
Its TGI is > 54000 nM.

And the GI50 [12]?
The GI50 was 318 nM.

And the TGI [12]?
Its TGI is > 64000 nM.

And the GI50 [13]?
Its GI50 is 326 nM.

And the TGI [13]?
Its TGI is > 48700 nM.

What about the GI50 [14] of the same compound?
Its GI50 is 254 nM.

And the TGI [14]?
Its TGI is 652 nM.

And the GI50 [15]?
Its GI50 is 1270 nM.

What about the TGI [15] of the same compound?
Its TGI is > 100000 nM.

And the GI50 [16]?
Its GI50 is 911 nM.

And the TGI [16]?
Its TGI is > 27500 nM.

What about the GI50 [17] of the same compound?
The GI50 was 319 nM.

And the TGI [17]?
Its TGI is > 100000 nM.

What about the GI50 [18] of the same compound?
Its GI50 is 350 nM.

What about the GI50 [19] of the same compound?
The GI50 was 574 nM.

And the TGI [19]?
Its TGI is > 100000 nM.

And the GI50 [20]?
Its GI50 is 314 nM.

What about the TGI [20] of the same compound?
Its TGI is > 53900 nM.

What about the GI50 [21] of the same compound?
The GI50 was 328 nM.

And the GI50 [22]?
Its GI50 is 444 nM.

What about the TGI [22] of the same compound?
Its TGI is > 39900 nM.

And the GI50 [23]?
The GI50 was 307 nM.

What about the TGI [23] of the same compound?
The TGI was > 37700 nM.

And the GI50 [24]?
Its GI50 is 544 nM.

What about the TGI [24] of the same compound?
Its TGI is > 60800 nM.

What about the GI50 [25] of the same compound?
Its GI50 is 324 nM.

And the TGI [25]?
Its TGI is > 90900 nM.

What about the GI50 [26] of the same compound?
The GI50 was 393 nM.

What about the GI50 [27] of the same compound?
Its GI50 is 127 nM.

And the TGI [27]?
The TGI was 415 nM.

What about the GI50 [28] of the same compound?
The GI50 was 399 nM.

What about the TGI [28] of the same compound?
Its TGI is > 33200 nM.

And the GI50 [29]?
Its GI50 is 416 nM.

What about the TGI [29] of the same compound?
Its TGI is > 88000 nM.

What about the GI50 [30] of the same compound?
Its GI50 is 562 nM.

What about the TGI [30] of the same compound?
The TGI was > 100000 nM.

What about the GI50 [31] of the same compound?
Its GI50 is 332 nM.

And the TGI [31]?
The TGI was 5930 nM.

And the GI50 [32]?
Its GI50 is 157 nM.

And the GI50 [33]?
Its GI50 is 307 nM.

And the TGI [33]?
Its TGI is > 50500 nM.

What about the GI50 [34] of the same compound?
Its GI50 is 2530 nM.

And the TGI [34]?
The TGI was 7500 nM.

What about the GI50 [35] of the same compound?
The GI50 was 1580 nM.

And the TGI [35]?
The TGI was > 100000 nM.

What about the GI50 [36] of the same compound?
The GI50 was 493 nM.

What about the TGI [36] of the same compound?
Its TGI is > 100000 nM.

What about the GI50 [37] of the same compound?
The GI50 was 373 nM.

What about the TGI [37] of the same compound?
Its TGI is > 100000 nM.

And the GI50 [38]?
The GI50 was 470 nM.

What about the TGI [38] of the same compound?
Its TGI is > 100000 nM.

What about the GI50 [39] of the same compound?
Its GI50 is 4170 nM.

And the TGI [39]?
The TGI was > 100000 nM.

What about the GI50 [40] of the same compound?
Its GI50 is 3230 nM.

What about the TGI [40] of the same compound?
Its TGI is > 100000 nM.

And the GI50 [41]?
Its GI50 is 615 nM.

What about the TGI [41] of the same compound?
The TGI was > 100000 nM.

And the GI50 [42]?
The GI50 was 3400 nM.

And the TGI [42]?
The TGI was > 100000 nM.

And the GI50 [43]?
The GI50 was 25 nM.

And the TGI [43]?
Its TGI is 69.8 nM.

What about the GI50 [44] of the same compound?
Its GI50 is 811 nM.

And the TGI [44]?
The TGI was > 43200 nM.

What about the GI50 [45] of the same compound?
The GI50 was 327 nM.

And the TGI [45]?
Its TGI is 1250 nM.

And the GI50 [46]?
The GI50 was 643 nM.

And the TGI [46]?
The TGI was > 100000 nM.

And the GI50 [47]?
The GI50 was 629 nM.

And the TGI [47]?
The TGI was > 46800 nM.

What about the GI50 [48] of the same compound?
Its GI50 is 469 nM.

And the TGI [48]?
The TGI was > 100000 nM.

What about the GI50 [49] of the same compound?
Its GI50 is 390 nM.

And the TGI [49]?
The TGI was > 100000 nM.

What about the GI50 [50] of the same compound?
The GI50 was 141 nM.

What about the GI50 [51] of the same compound?
Its GI50 is 284 nM.

What about the TGI [51] of the same compound?
Its TGI is > 100000 nM.

And the GI50 [52]?
Its GI50 is > 100000 nM.

What about the TGI [52] of the same compound?
The TGI was > 100000 nM.

What about the TGI [53] of the same compound?
Its TGI is > 100000 nM.

What about the GI50 [54] of the same compound?
Its GI50 is 372 nM.

And the TGI [54]?
The TGI was > 42500 nM.

And the TGI [55]?
The TGI was > 32500 nM.

And the GI50 [56]?
Its GI50 is 627 nM.

What about the TGI [56] of the same compound?
The TGI was > 53200 nM.

And the GI50 [57]?
The GI50 was 622 nM.

What about the TGI [57] of the same compound?
Its TGI is > 75400 nM.
